Measurements taken from US4088778A, “Method for the treatment of hypertension” (priority 1975, dated 1978).

Experiment: Clinical Test I, double blind: subjective symptoms
Assay type: in vivo, human patients
Details: for Stiffness in Shoulders: Improvement ratio: P group 45.2
Protocol: 94 patients of hypertension or arteriosclerosis having subjective symptoms were tested, and some of them suffered from complications such as ischemia heart disease, hypertensive heart disease and encephalomalacia.
As the active drug, there were employed hard capsules, each containing 100 mg of TN.
Two capsules were orally administered at one time, and the administration was conducted three times a day after eating. The period of the administration was principally 4 weeks or 6 weeks. During this period, the administration was performed continuously. Combined administration of drugs having the same function as that of TN (vitamin E drugs, nicotinic acid, its derivatives and peripheral vasolidators) was prohibited. Drugs which had been continuously administered since before the start of the administration of TN were similarly administered according to the disease case and symptom, and change of the prescription during the test was avoided.
In the above Table, the "Improved" means that the symptom was improved by at least one grade as compared with the symptom before the administration,and each number denotes the total number of the patients in whom the symptom was thus improved.
*The patients were divided into two groups, one in which the symptom was
improved by at least 2 grades (the sum of the patients in which the
symptoms were improved by 2, 3 and 4 grades) and the other in which the
symptom was improved by one grade, unchanged or worsened. The assay was
conducted on these two groups. (In other cases, the patients were divided
into two groups, one in which the symptom was improved by one grade and
the other in which the symptom was unchanged or worsened, and the assay
was made on these two groups.)
according to Fischer direct probability calculation method.

[1] = number of patients, total 3 (Table 9)
[2] = number of patients, total 7 (Table 9)
[3] = number of patients, total 8 (Table 9)
[4] = number of patients, total 9 (Table 9)
[5] = number of patients, total 9 (Table 10)
[6] = number of patients, total 11 (Table 9)
[7] = number of patients, total 13 (Table 9)
[8] = number of patients, total 14 (Table 9)
[9] = number of patients, total 15 (Table 9)
[10] = number of patients, total 16 (Table 9)
[11] = number of patients, total 16 (Table 10)
[12] = number of patients, total 17 (Table 9)
[13] = number of patients, total 18 (Table 9)
[14] = number of patients, total 18 (Table 10)
[15] = number of patients, total 23 (Table 9)
[16] = number of patients, total 23 (Table 10)
[17] = number of patients, total 25 (Table 9)
[18] = number of patients, total 25 (Table 10)
[19] = number of patients, total 26 (Table 9)
[20] = number of patients, total 26 (Table 10)
[21] = number of patients, total 28 (Table 9)
[22] = number of patients, total 28 (Table 10)
[23] = number of patients, total 30 (Table 9)
[24] = number of patients, total 51 (Table 10)

## Cc1c(C)c2c(c(C)c1OC(=O)c1cccnc1)CCC(C)(CCCC(C)CCCC(C)CCCC(C)C)O2 (racemic) [TN, dl-α-tocopheryl nicotinate]
Table 9, P group 21.7
  Forgetfulness: Improvement Ratio: 38.9%
Table 9, P group 37.5
  Virtigo: Improvement Ratio: 66.7%
Table 9, P group 40.0
  Pains on Waist and Back: Improvement Ratio: 64.7%
  Syncope: Improvement Ratio: 75.0%
Table 9, P group 41.2
  Chill on Limbs: Improvement Ratio: 35.7%
Table 9, P group 43.8
  Stiffness in Nape: Improvement ratio: 68.0%
Table 9
  Stiffness in Shoulders: Improvement ratio: 65.4%
Table 9, P group 47.4
  Insomnia: Improvement ratio: 83.3%
Table 9, P group 50.0
  Dizzy Feeling: Improvement ratio: 81.3%
  Irritation: Improvement Ratio: 66.7%
  Rush of Blood: Improvement Ratio: 69.2%
Table 9, P group 52.6
  Tinnitus: Improvement Ratio: 50.0%
Table 9, P group 53.8
  Palsy in Limbs: Improvement ratio: 82.6%
  Short Breath: Improvement Ratio: 42.9%
Table 9, P group 62.5
  Heaviness in Head: Improvement Ratio: 82.1%
Table 9, P group 63.6
  Oppression on Breast: Improvement Ratio: 62.5%
Table 9, P group 66.7
  Warmness: Improvement Ratio: 77.8%
Table 9, P group 70.6
  Languor: Improvement Ratio: 60.0%
Table 9, P group 76.9
  Palpitation: Improvement Ratio: 72.7%
Table 9, P group 77.8
  Depression: Improvement Ratio: 42.9%
Table 9, P group 78.6
  Headache: Improvement ratio: 83.3%
Table 9, P group 100.0
  Pain on Breast: Improvement Ratio: 71.4%
Table 10, P group 37.5
  Vertigo: Improvement ratio: 66.7%
Table 10, P group 43.8, chi0^2 = 3.3270, P < 0.10
  Stiffness in Nape: Improvement ratio: 68.0%
Table 10, P group 44.4, chi0^2 = 5.6104, P < 0.025
  Stiffness in Shoulders and Nape: Improvement ratio: 66.7%
Table 10
  Stiffness in Shoulders: Improvement ratio: 65.4%
Table 10, P group 46.4, chi0^2 = 8.3955, P < 0.005
  Vertigo plus Dizzy Feeling: Improvement ratio: 73.1%
Table 10, P group 47.4, P = 0.0247
  Insomnia: Improvement ratio: 83.3%
Table 10, P group 50.0, chi0^2 = 7.4243, P < 0.01
  Dizzy Feeling: Improvement ratio: 81.3%
Table 10, P group 53.8, P = 0.0318
  Palsy in Limbs: Improvement ratio: 82.6%
Table 10, P group 62.5, chi0^2 = 3.1277, P < 0.10
  Headache: Improvement ratio: 82.1%
human, in vivo
  relief of headache, vertigo, dizzy feeling, syncope, stiffness in the shoulders, stiffness in the nape, palsy in limbs, insomnia and pains on the waist and the back: excellent effects were attained
[1]
  Irritation: Improved: 2
  Irritation: Unchanged or Worsened: 1
[2]
  Depression: Improved: 3
  Depression: Unchanged or Worsened: 4
  Pain on Breast: Improved: 5
  Pain on Breast: Unchanged or Worsened: 2
  Short Breath: Improved: 3
  Short Breath: Unchanged or Worsened: 4
[3]
  Oppression on Breast: Improved: 5
  Oppression on Breast: Unchanged or Worsened: 3
  Syncope: Improved: 6
  Syncope: Unchanged or Worsened: 2
[4]
  Virtigo: Improved: 6
  Virtigo: Unchanged or Worsened: 3
  Warmness: Improved: 7
  Warmness: Unchanged or Worsened: 2
[5]
  Vertigo: Improved by 1 grade: 1
  Vertigo: Improved by 2 grades: 3
  Vertigo: Improved by 3 grades: 1
  Vertigo: Improved by 4 grades: 1
  Vertigo: Not Changed: 2
  Vertigo: Worsened by 1 grade: 1
  Vertigo: Worsened by 2 grades: 0
[6]
  Palpitation: Improved: 8
  Palpitation: Unchanged or Worsened: 3
[7]
  Rush of Blood: Improved: 9
  Rush of Blood: Unchanged or Worsened: 4
[8]
  Chill on Limbs: Improved: 5
  Chill on Limbs: Unchanged or Worsened: 9
[9]
  Languor: Improved: 9
  Languor: Unchanged or Worsened: 6
[10]
  Dizzy Feeling: Improved: 13
  Dizzy Feeling: Unchanged or Worsened: 3
  Tinnitus: Improved: 8
  Tinnitus: Unchanged or Worsened: 8
[11]
  Dizzy Feeling: Improved by 1 grade: 0
  Dizzy Feeling: Improved by 2 grades: 11
  Dizzy Feeling: Improved by 3 grades: 1
  Dizzy Feeling: Improved by 4 grades: 1
  Dizzy Feeling: Not Changed: 2
  Dizzy Feeling: Worsened by 1 grade: 1
  Dizzy Feeling: Worsened by 2 grades: 0
[12]
  Pains on Waist and Back: Improved: 11
  Pains on Waist and Back: Unchanged or Worsened: 6
[13]
  Forgetfulness: Improved: 7
  Forgetfulness: Unchanged or Worsened: 11
  Insomnia: Improved: 15
  Insomnia: Unchanged or Worsened: 3
[14]
  Insomnia: Improved by 1 grade: 7
  Insomnia: Improved by 2 grades: 7
  Insomnia: Improved by 3 grades: 0
  Insomnia: Improved by 4 grades: 1
  Insomnia: Not Changed: 2
  Insomnia: Worsened by 1 grade: 1
  Insomnia: Worsened by 2 grades: 0
[15]
  Palsy in Limbs: Improved: 19
  Palsy in Limbs: Unchanged or Worsened: 4
[16]
  Palsy in Limbs: Improved by 1 grade: 11
  Palsy in Limbs: Improved by 2 grades: 7
  Palsy in Limbs: Improved by 3 grades: 1
  Palsy in Limbs: Improved by 4 grades: 0
  Palsy in Limbs: Not Changed: 4
  Palsy in Limbs: Worsened by 1 grade: 0
  Palsy in Limbs: Worsened by 2 grades: 0
[17]
  Stiffness in Nape: Improved: 17
  Stiffness in Nape: Unchanged or Worsened: 8
[18]
  Stiffness in Nape: Improved by 1 grade: 11
  Stiffness in Nape: Improved by 2 grades: 5
  Stiffness in Nape: Improved by 3 grades: 1
  Stiffness in Nape: Improved by 4 grades: 0
  Stiffness in Nape: Not Changed: 5
  Stiffness in Nape: Worsened by 1 grade: 2
  Stiffness in Nape: Worsened by 2 grades: 1
  Vertigo plus Dizzy Feeling: Improved by 1 grade: 1
  Vertigo plus Dizzy Feeling: Improved by 2 grades: 14
  Vertigo plus Dizzy Feeling: Improved by 3 grades: 2
  Vertigo plus Dizzy Feeling: Improved by 4 grades: 2
  Vertigo plus Dizzy Feeling: Not Changed: 4
  Vertigo plus Dizzy Feeling: Worsened by 1 grade: 2
  Vertigo plus Dizzy Feeling: Worsened by 2 grades: 0
[19]
  Stiffness in Shoulders: Improved: 17
  Stiffness in Shoulders: Unchanged or Worsened: 9
[20]
  Stiffness in Shoulders: Improved by 1 grade: 10
  Stiffness in Shoulders: Improved by 2 grades: 5
  Stiffness in Shoulders: Improved by 3 grades: 0
  Stiffness in Shoulders: Improved by 4 grades: 2
  Stiffness in Shoulders: Not Changed: 8
  Stiffness in Shoulders: Worsened by 1 grade: 1
  Stiffness in Shoulders: Worsened by 2 grades: 0
[21]
  Heaviness in Head: Improved: 23
  Heaviness in Head: Unchanged or Worsened: 5
[22]
  Headache: Improved by 1 grade: 7
  Headache: Improved by 2 grades: 12
  Headache: Improved by 3 grades: 4
  Headache: Improved by 4 grades: 0
  Headache: Not Changed: 4
  Headache: Worsened by 1 grade: 1
  Headache: Worsened by 2 grades: 0
[23]
  Headache: Improved: 25
  Headache: Unchanged or Worsened: 5
[24]
  Stiffness in Shoulders and Nape: Improved by 1 grade: 13
  Stiffness in Shoulders and Nape: Improved by 2 grades: 21
  Stiffness in Shoulders and Nape: Improved by 3 grades: 1
  Stiffness in Shoulders and Nape: Improved by 4 grades: 2
  Stiffness in Shoulders and Nape: Not Changed: 3
  Stiffness in Shoulders and Nape: Worsened by 1 grade: 1
  Stiffness in Shoulders and Nape: Worsened by 2 grades: 0
